The values that follow come from paper PMC4362054, “C-5’-Triazolyl-2’-oxa-3’-aza-4’a-carbanucleosides: Synthesis and biological evaluation” (Beilstein Journal of Organic Chemistry, 2015).

Series [1] can be described thus: Inhibition of cell proliferation (MTT method), BS-C-1 cells. The class given is cell-based. To be noted: African green monkey, BS-C-1 cells (African green monkey kidney), concentration which inhibited cell growth by 50% vs control cultures, mean of three assays. On the technique in general: Formazan colour is commonly taken as a measure of viable cells.
Series [2] in a line: Inhibition of cell proliferation (MTT method), HFF cells. The class given is cell-based, human. The conditions noted are these: human, HFF cells (human foreskin fibroblasts), concentration which inhibited cell growth by 50% vs control cultures, mean of three assays.
Series [3] can be described thus: Inhibition of cell proliferation (MTT method), Vero cells. The class given is cell-based. To be noted: African green monkey, Vero cells (African green monkey kidney), concentration which inhibited cell growth by 50% vs control cultures, mean of three assays.
The nature of series [4]: Inhibition of cell proliferation (MTT method), MDCK cells. Type of series: cell-based. The conditions noted are these: dog, MDCK cells (Madin-Darby canine kidney), concentration which inhibited cell growth by 50% vs control cultures, mean of three assays.
The test system of series [5] is HEp-2 cells. The series is described as follows: Inhibition of cell proliferation (MTT method), HEp-2 cells. The class given is cell-based, human. The conditions noted are these: concentration which inhibited cell growth by 50% vs control cultures, mean of three assays, read-out: CC50 HEp2.
Series [6] concerns HFF cells. As to the kind of experiment: Inhibition of cell proliferation (MTT method), HFF cells. The class given is cell-based, human. The conditions noted are these: concentration which inhibited cell growth by 50% vs control cultures, mean of three assays.
The nature of series [7]: Inhibition of cell proliferation (MTT method), HEp-2 cells. The class given is cell-based, human. To be noted: human, HEp-2 cells (human epidermoid carcinoma larynx), concentration which inhibited cell growth by 50% vs control cultures, mean of three assays, read-out: CC50 HEp2.
The conditions of series [8]: statement in words; reference not given; cited from earlier work.
The conditions of series [9]: statement in words; reference not given; cited from earlier work. This is another data set of the same source.

As usually defined, the melting point is the temperature of the solid-liquid transition. Broadly, the CC50 is the concentration giving 50% cytotoxicity. On to `Cc1cn([C@@H]2C[C@H](Cn3cc(CCO)nn3)N(C)O2)c(=O)[nH]c1=O` [13a], for which the melting point was 215 to 218 °C. Further, it took 10 µM to reach half-maximal cytotoxicity in series [1] (CC50). Besides, the CC50 in [2] came out at 10 µM. In series [3], this compound came in with a CC50 of 10 µM. The compound also had a CC50 in [4] of 10 µM. Moreover, in series [5], the cytotoxic concentration (CC50) was determined as 40 µM.

Consider `Cc1cn([C@@H]2C[C@H](Cn3cc(CO)nn3)N(C)O2)c(=O)[nH]c1=O` [13b], for which the melting point lay within 205 to 210 °C. In series [1], this compound yielded a 50% cytotoxic concentration (CC50) of 30 µM. In series [2], this compound came in with a 50% cytotoxic concentration (CC50) of 30 µM. This compound also yielded a CC50 in series [3] of 40 µM. The midpoint of cytotoxicity in [4], the CC50, lay at 30 µM. Moreover, the CC50 in series [5] was 40 µM.

For `CCCc1cn(C[C@H]2C[C@@H](n3cc(C)c(=O)[nH]c3=O)ON2C)nn1` [13c], the melting point fell in the range of 132 to 137 °C. In series [1], this compound displayed a CC50 of 20 µM. The compound also yielded a CC50 in [6] of 5 µM. In series [3], this compound returned a CC50 of 20 µM. Further, it took 20 µM to reach half-maximal cytotoxicity in [4] (CC50). For the same compound, the CC50 in series [5] amounted to 40 µM.

For the compound `Cc1cn([C@@H]2C[C@H](Cn3cc(-c4ccccc4)nn3)N(C)O2)c(=O)[nH]c1=O` [13d], the melting point lay within 268 to 272 °C. Moreover, the CC50 in series [1] worked out at 20 µM. The compound further displayed a cytotoxic concentration (CC50) in series [6] of 5 µM. For the same compound, in series [3], half-maximal cytotoxicity (CC50) was put at 20 µM. This compound also showed a cytotoxic concentration (CC50) in series [4] of 20 µM. Further, the CC50 in series [7] is 20 µM.

Regarding `COc1ccc(-c2cn(C[C@H]3C[C@@H](n4cc(C)c(=O)[nH]c4=O)ON3C)nn2)cc1` [13e], the melting point was 215 to 218 °C. This compound showed a half-maximal cytotoxic concentration (CC50) in series [1] of 20 µM. Besides, in [6], the 50% cytotoxic concentration (CC50) came to 5 µM. This compound also registered a cytotoxic concentration (CC50) in series [3] of 20 µM. Also, the CC50 in series [4] worked out at 20 µM. In addition, in [5], the 50% cytotoxic concentration (CC50) is 40 µM.

As for `Cc1cn([C@@H]2C[C@H](Cn3cc(-c4ccc(F)cc4)nn3)N(C)O2)c(=O)[nH]c1=O` [13f], the melting point fell in the range of 269 to 271 °C. This compound also showed a CC50 in series [1] of 10 µM. Besides, half-maximal cytotoxicity in series [2] (CC50) was put at 40 µM. Also, the half-maximal cytotoxic concentration (CC50) in series [3] is 10 µM. In series [4], this compound returned a CC50 of 10 µM. In addition, the CC50 in series [5] is 40 µM.

`CCCCCc1ccc(-c2cn(C[C@H]3C[C@@H](n4cc(C)c(=O)[nH]c4=O)ON3C)nn2)cc1` [13g] yielded a melting point of 259 to 260 °C. Also, the midpoint of cytotoxicity in series [1], the CC50, lay at 10 µM. Half-maximal cytotoxicity in series [6] (CC50) was put at 5 µM. The compound further had a cytotoxic concentration (CC50) in [3] of 10 µM. Further, the midpoint of cytotoxicity in series [4], the CC50, lay at 10 µM. The half-maximal cytotoxic concentration (CC50) in series [7] was found to be 20 µM.

The compound `Cc1cn([C@H]2C[C@H](Cn3cc(CCO)nn3)N(C)O2)c(=O)[nH]c1=O` [14a] showed a melting point of 202 to 206 °C. For the same compound, in series [1], half-maximal cytotoxicity (CC50) was put at 20 µM. In [2], it took 20 µM to reach half-maximal cytotoxicity (CC50). Moreover, in series [3], the CC50 was 20 µM. In series [4], this compound came in with a CC50 of 20 µM. Moreover, the CC50 in series [5] came out at 40 µM.

As for `Cc1cn([C@H]2C[C@H](Cn3cc(CO)nn3)N(C)O2)c(=O)[nH]c1=O` [14b], the melting point fell in the range of 198 to 201 °C. The compound further gave a 50% cytotoxic concentration (CC50) in [1] of 10 µM. Further, the CC50 in [2] came out at 20 µM. In [3], this compound gave a 50% cytotoxic concentration (CC50) of 20 µM. In addition, the half-maximal cytotoxic concentration (CC50) in [4] came out at 20 µM. Besides, the CC50 in series [5] was 40 µM.

In the case of `CCCc1cn(C[C@H]2C[C@H](n3cc(C)c(=O)[nH]c3=O)ON2C)nn1` [14c], the melting point was in the range of 168 to 170 °C. The compound also showed a CC50 in series [1] of 20 µM. The midpoint of cytotoxicity in [6], the CC50, lay at 5 µM. For the same compound, it took 20 µM to reach half-maximal cytotoxicity in series [3] (CC50). In series [4], this compound gave a CC50 of 20 µM. Further, the half-maximal cytotoxic concentration (CC50) in series [5] is 40 µM.

`Cc1cn([C@H]2C[C@H](Cn3cc(-c4ccccc4)nn3)N(C)O2)c(=O)[nH]c1=O` [14d]: the melting point lay in the range of 233 to 235 °C. In [1], the midpoint of cytotoxicity, the CC50, lay at 5 µM. It took 5 µM to reach half-maximal cytotoxicity in [6] (CC50). The same compound showed a cytotoxic concentration (CC50) in series [3] of 5 µM. The compound also had a CC50 in [4] of 5 µM. Moreover, in [7], the CC50 worked out at 5 µM.

Consider `COc1ccc(-c2cn(C[C@H]3C[C@H](n4cc(C)c(=O)[nH]c4=O)ON3C)nn2)cc1` [14e], for which the melting point was 202 to 205 °C. The CC50 in series [1] turned out to be 20 µM. In series [6], this compound came in with a 50% cytotoxic concentration (CC50) of 5 µM. In series [3], the half-maximal cytotoxic concentration (CC50) turned out to be 20 µM. The compound further yielded a CC50 in series [4] of 20 µM. For the same compound, in [5], the CC50 stood at 40 µM.

`Cc1cn([C@H]2C[C@H](Cn3cc(-c4ccc(F)cc4)nn3)N(C)O2)c(=O)[nH]c1=O` [14f] returned a melting point of 230 to 233 °C. The CC50 in series [1] stood at 20 µM. Also, in series [6], the 50% cytotoxic concentration (CC50) is 5 µM. Also, it took 20 µM to reach half-maximal cytotoxicity in series [3] (CC50). The same compound had a CC50 in series [4] of 20 µM. Moreover, in [5], the CC50 was determined as 40 µM.

Regarding `CCCCCc1ccc(-c2cn(C[C@H]3C[C@H](n4cc(C)c(=O)[nH]c4=O)ON3C)nn2)cc1` [14g], the melting point is 245 to 248 °C. For the same compound, the CC50 in [1] stood at 10 µM. This compound registered a CC50 in [6] of 5 µM. Besides, it took 10 µM to reach half-maximal cytotoxicity in [3] (CC50). Also, half-maximal cytotoxicity in [4] (CC50) was put at 10 µM. The cytotoxic concentration (CC50) in series [7] was 20 µM.

Turning to `Cc1cn([C@@H]2C[C@H](CO)N(C)O2)c(=O)[nH]c1=O` [compound 8, (3′RS,5′SR)-2′-N-methyl-3′-hydroxymethyl-1′,2′-isoxazolidin-5′-ylthymine], the antiviral activity entry in series [8] is “endowed with antiviral activity”. Further, in series [9], the cytotoxicity result is listed as “do not show any cytotoxicity”.
